According to PubChem BioAssay AID248 (DTP/NCI, 2004):
Inconclusive results and toxic doses are left out. Rule as the data show it: active = T/C of 150% or more; inactive = T/C below 125%.

Test system: L1210 leukemia ip in BDF1 mice, survival T/C
Experiment: NCI In Vivo Anticancer Drug Screen. Data for tumor model L1210 Leukemia (intraperitoneal) in B6D2F1 (BDF1) mice
Settings: endpoint: mean survival time, higher = longer survival
Method in brief: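 Ratio derived from survival: compound-dosed mice over vehicle-dosed mice, all bearing a transplantable tumor.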

[1] = dose: 100.0 mg/kg/injection, schedule: Q01DX001 (ip), vehicle: saline
[2] = dose: 200.0 mg/kg/injection, schedule: Q01DX001 (ip), vehicle: saline
[3] = dose: 400.0 mg/kg/injection, schedule: Q01DX001 (ip), vehicle: saline
[4] = dose: 100.0 mg/kg/injection, schedule: Q01DX009 (ip), vehicle: Klucel (hydroxypropylcellulose) (HPC)
[5] = dose: 100.0 mg/kg/injection, schedule: Q04DX003 (ip), vehicle: Klucel (hydroxypropylcellulose) (HPC)
[6] = dose: 200.0 mg/kg/injection, schedule: Q01DX009 (ip), vehicle: Klucel (hydroxypropylcellulose) (HPC)
[7] = dose: 200.0 mg/kg/injection, schedule: Q04DX003 (ip), vehicle: Klucel (hydroxypropylcellulose) (HPC)
[8] = dose: 400.0 mg/kg/injection, schedule: Q01DX009 (ip), vehicle: Klucel (hydroxypropylcellulose) (HPC)
[9] = dose: 400.0 mg/kg/injection, schedule: Q04DX003 (ip), vehicle: Klucel (hydroxypropylcellulose) (HPC)
[10] = dose: 100.0 mg/kg/injection, schedule: Q04DX003 (ip), vehicle: saline
[11] = dose: 200.0 mg/kg/injection, schedule: Q04DX003 (ip), vehicle: saline
[12] = dose: 100.0 mg/kg/injection, schedule: Q01DX001 (ip), vehicle: Klucel (hydroxypropylcellulose) (HPC)
[13] = dose: 200.0 mg/kg/injection, schedule: Q01DX001 (ip), vehicle: Klucel (hydroxypropylcellulose) (HPC)
[14] = dose: 400.0 mg/kg/injection, schedule: Q01DX001 (ip), vehicle: Klucel (hydroxypropylcellulose) (HPC)
[15] = dose: 100.0 mg/kg/injection, schedule: Q04DX002 (ip), vehicle: Klucel (hydroxypropylcellulose) (HPC)
[16] = dose: 200.0 mg/kg/injection, schedule: Q04DX002 (ip), vehicle: Klucel (hydroxypropylcellulose) (HPC)
[17] = dose: 400.0 mg/kg/injection, schedule: Q04DX002 (ip), vehicle: Klucel (hydroxypropylcellulose) (HPC)
[18] = dose: 50.0 mg/kg/injection, schedule: Q01DX009 (ip), vehicle: saline
[19] = dose: 100.0 mg/kg/injection, schedule: Q01DX009 (ip), vehicle: saline

Measured: T/C

COc1c(N)cc2c(c1C)OCOC2
inactive: [1] 97 % of control | [2] 100 % of control | [3] 105 % of control

CCCCSCC(N)C(=O)O (stereo unspecified)
inactive: [4] 96 % of control | [5] 92 % of control | [6] 96 % of control | [7] 94 % of control | [8] 98 % of control | [9] 103 % of control

NC(N)=NC1CCCCC1
inactive: [10] 102 % of control | [11] 112 % of control

O=C(CBr)c1cccnc1
inactive: dose: 6.25 mg/kg/injection, schedule: Q01DX009 (ip), vehicle: saline 98 % of control | dose: 12.5 mg/kg/injection, schedule: Q01DX009 (ip), vehicle: saline 98 % of control

NC(CS)=NC1CCCC1
inactive: dose: 12.5 mg/kg/injection, schedule: Q04DX003 (ip), vehicle: saline 108 % of control | dose: 25.0 mg/kg/injection, schedule: Q04DX003 (ip), vehicle: saline 115 % of control | dose: 50.0 mg/kg/injection, schedule: Q04DX003 (ip), vehicle: saline 112 % of control

Nc1ccc(Cc2[nH]c(=O)[nH]c(=O)c2Br)cc1[N+](=O)[O-]
inactive: dose: 25.0 mg/kg/injection, schedule: Q01DX001 (ip), vehicle: Klucel (hydroxypropylcellulose) (HPC) 103 % of control | dose: 50.0 mg/kg/injection, schedule: Q01DX001 (ip), vehicle: Klucel (hydroxypropylcellulose) (HPC) 95 % of control | [12] 93 % of control

NC(CS(N)(=O)=O)C(=O)O (stereo unspecified)
inactive: dose: 75.0 mg/kg/injection, schedule: Q01DX001 (ip), vehicle: saline 97 % of control | dose: 150.0 mg/kg/injection, schedule: Q01DX001 (ip), vehicle: saline 103 % of control | dose: 300.0 mg/kg/injection, schedule: Q01DX001 (ip), vehicle: saline 102 % of control

Cc1ccc(SSc2ccc(C)cc2[N+](=O)[O-])c([N+](=O)[O-])c1
inactive: [4] 92 % of control | [5] 97 % of control | [6] 91 % of control | [7] 90 % of control | [8] 90 % of control | [9] 94 % of control

Cn1c2ccccc2c2nnc(NCCCCO)nc21
inactive: dose: 100.0 mg/kg/injection, schedule: Q04DX002 (ip), vehicle: saline 106 % of control | dose: 200.0 mg/kg/injection, schedule: Q04DX002 (ip), vehicle: saline 97 % of control | dose: 400.0 mg/kg/injection, schedule: Q04DX002 (ip), vehicle: saline 101 % of control

Nc1nc(SCc2ccccc2)c(N)c(=S)[nH]1
inactive: [12] 95 % of control | [13] 90 % of control | [14] 93 % of control

CS(=O)(=O)Oc1cccc(C2CS(=O)(=O)c3ccccc3N2)c1 (stereo unspecified)
inactive: [12] 101 % of control | [4] 104 % of control | [5] 97 % of control | [13] 106 % of control | [6] 101 % of control | [7] 97 % of control | [14] 103 % of control | [8] 101 % of control | [9] 94 % of control

O=C(/C(=N\O)c1ccc(Cl)cc1)c1ccc(Cl)cc1
inactive: dose: 50.0 mg/kg/injection, schedule: Q01DX009 (ip), vehicle: saline with Tween-80 100 % of control | dose: 100.0 mg/kg/injection, schedule: Q01DX009 (ip), vehicle: saline with Tween-80 89 % of control | dose: 200.0 mg/kg/injection, schedule: Q01DX009 (ip), vehicle: saline with Tween-80 92 % of control

COC(=O)C(NC(=O)COc1ccccc1[N+](=O)[O-])C(=O)OC
inactive: dose: 100.0 mg/kg/injection, schedule: Q01DX001 (ip), vehicle: saline with Tween-80 100 % of control | dose: 200.0 mg/kg/injection, schedule: Q01DX001 (ip), vehicle: saline with Tween-80 95 % of control | dose: 400.0 mg/kg/injection, schedule: Q01DX001 (ip), vehicle: saline with Tween-80 97 % of control

O=C(CC1C(=O)Nc2ccccc21)CC1C(=O)Nc2ccccc21 (stereo unspecified)
inactive: [15] 102 % of control | [16] 97 % of control | [17] 102 % of control

CC(=O)OCCSc1ccc(C)cc1
inactive: [15] 100 % of control | [16] 103 % of control | [17] 100 % of control

Cc1ccccc1CCC(=O)OCC(=O)c1ccc(-c2ccccc2)cc1
inactive: [1] 96 % of control | [2] 88 % of control | [3] 92 % of control

Cn1nc(N)c2ncc(-c3ccccc3)nc21
inactive: [4] 92 % of control | [10] 103 % of control | [6] 95 % of control | [11] 107 % of control | [8] 98 % of control | dose: 400.0 mg/kg/injection, schedule: Q04DX003 (ip), vehicle: saline 98 % of control

CCOCCCN
inactive: [18] 103 % of control | [19] 95 % of control | [10] 100 % of control | [11] 106 % of control

Cl[C](Cl)([Pb]([c]1ccccc1)([c]1ccccc1)[c]1ccccc1)[Pb]([c]1ccccc1)([c]1ccccc1)[c]1ccccc1
inactive: dose: 100.0 mg/kg/injection, schedule: Q04DX002 (ip), vehicle: saline with Tween-80 98 % of control | dose: 200.0 mg/kg/injection, schedule: Q04DX002 (ip), vehicle: saline with Tween-80 94 % of control | dose: 400.0 mg/kg/injection, schedule: Q04DX002 (ip), vehicle: saline with Tween-80 90 % of control

O=C(O)CCOc1ccc(Cl)cc1
inactive: dose: 100.0 mg/kg/injection, schedule: Q04DX003 (ip), vehicle: saline with Tween-80 106 % of control | dose: 200.0 mg/kg/injection, schedule: Q04DX003 (ip), vehicle: saline with Tween-80 103 % of control | dose: 400.0 mg/kg/injection, schedule: Q04DX003 (ip), vehicle: saline with Tween-80 95 % of control

CCCCN1CC1(C)C (stereo unspecified)
inactive: dose: 25.0 mg/kg/injection, schedule: Q01DX009 (ip), vehicle: saline 105 % of control | [18] 105 % of control | [1] 98 % of control | [19] 106 % of control

O=C(Nc1ccccc1F)OCCOc1ccccc1Cl
inactive: [4] 115 % of control | [6] 112 % of control | [8] 124 % of control
